Like-named read-outs stand apart in the source and are kept apart here.

Experiment [1] relates to A549 cells (KRAS G12S mutant). The experiment in a line: Cell proliferation inhibition experiment, 3D spheroid, CellTiter-Glo, A549. The note with it: A549 (KRAS G12S mutant) 3D spheroid, 5 days with compound, CellTiter-Glo, read-out: A549 IC50. The class given is cell-based, human. In a few lines:
(§1)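 Cells seeded in 2% FBS medium in spheroid plates (800 H358 or 400 A549 per well), grown overnight to form 3D spheroids, then exposed to 3.16-fold compound dilutions (0.1% DMSO) for 5 days. CellTiter-Glo luminescence gave inhibition vs DMSO and medium blanks; IC50 by four-parameter fit.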

The test system of experiment [2] is KRAS G12C mutant NCI-H358 cells. The experiment in a line: Cell proliferation inhibition experiment, 3D spheroid, CellTiter-Glo, NCI-H358. The settings on record: NCI-H358 (KRAS G12C mutant) 3D spheroid, 5 days with compound, CellTiter-Glo, read-out: H358 IC50. The format is cell-based, human. The method in brief:
as §1
In general terms: Cellular ATP, detected with luciferase, serves as a proxy for viable cell number.

In general, IC50 refers to the concentration at which inhibition is half-maximal. For `C=CC(=O)N1CCN2C(=O)c3c(N4CCN(CCO)C[C@@H]4C)nc(-c4c(O)cccc4F)c(Cl)c3OC[C@H]2C1` [Z257, (6aR)-8-acryloyl-4-chloro-3-(2-fluoro-6-hydroxyphenyl)-1-((S)-4-(2-hydroxyethyl)-2-methylpiperazin-1-yl)-6,6a,7 ,8,9,10-hexahydro-12H-pyrazino[2,1-c]pyrido[3,4-f][1,4]oxazepin-12-one], the IC50 in experiment [1] (Homo sapiens, A549, 120 h) is over 30000 nM; in experiment [2] (Homo sapiens, NCI-H358, 120 h), 10.2 nM.

Take `C=CC(=O)N1CCN2C(=O)c3c(N4C[C@@H](O)C[C@@H]4C)nc(-c4c(O)cccc4F)c(Cl)c3OC[C@H]2C1` [Z260, (6aR)-8-acryloyl-4-chloro-3-(2-fluoro-6-hydroxyphenyl)-1-((2S,4S)-4-hydroxy-2-methylpyrrolidin-1-yl)-6,6a,7,8,9,10-hexahydro-12H-pyrazino[2,1-c]pyrido[3,4-f][1,4]oxazepin-12-one]: the IC50 worked out at 27800 nM in experiment [1] (Homo sapiens, A549, 120 h) and 5 nM in experiment [2] (Homo sapiens, NCI-H358, 120 h).

Consider `C=CC(=O)N1CCN2C(=O)c3c(N4CCN(C)C(C)(C)C4)nc(-c4c(O)cccc4F)c(Cl)c3OC[C@H]2C1` [Z261, (6aR)-8-acryloyl-4-chloro-3-(2-fluoro-6-hydroxyphenyl)-1-(3,3,4-trimethylpiperazin-1-yl)-6,6a,7,8,9,10-hexahydro-12H-pyrazino[2,1-c]pyrido[3,4-f][1,4]oxazepin-12-one], for which the IC50 was determined as 8890 nM in experiment [1] (Homo sapiens, A549, 120 h) and 6.6 nM in experiment [2] (Homo sapiens, NCI-H358, 120 h).

As to `C=CC(=O)N1CCN2C(=O)c3c(N4CCN(C)C(C)C4C)nc(-c4c(O)cccc4F)c(Cl)c3OC[C@H]2C1` (stereo partly drawn) [Z308a, (6aR)-8-acryloyl-4-chloro-3-(2-fluoro-6-hydroxyphenyl)-1-(2,3,4-trimethylpiperazin-1-yl)-6,6a,7,8,9,10-hexahydro-12H-pyrazino[2,1-c]pyrido[3,4-f][1,4]oxazepin-12-one], the IC50 in experiment [1] turned out to be 7100 nM; in experiment [2] it was 4.1 nM.

As for `C=CC(=O)N1CCN2C(=O)c3c(C4NCCN5C(=O)CCC45C)nc(-c4c(O)cccc4F)c(Cl)c3OC[C@H]2C1` (stereo partly drawn) [Z337, (6aR)-8-acryloyl-4-chloro-3-(2-fluoro-6-hydroxyphenyl)-1-(8a-methylhexahydropyrrolo[1,2-a]pyrazin-6 (2H)-one-1-yl)-6,6a,7,8,9,10-hexahydro-12H-pyrazino[2,1-c]pyrido[3,4-f][1,4]oxazepin-12-one], the IC50 in experiment [1] was over 30000 nM; in experiment [2], 15 nM.

As to `C=CC(=O)N1CCN2C(=O)c3c(N4CC(N(C)CC(F)F)CC4(C)C)nc(-c4ccccc4F)c(Cl)c3OC[C@H]2C1` (stereo partly drawn) [Z659], the results for the IC50 in experiment [1] and in experiment [2] were 5460 nM and 1.8 nM, respectively.

(Values after patent US20230203060A1 (GENFLEET THERAPEUTICS (SHANGHAI) INC., priority 2020, published 2023).)
